Results from publication PMC12603070, “A high-throughput screening approach to discover potential colorectal cancer chemotherapeutics: repurposing drugs to identify novel disruptors of 14-3-3 proteins” (Cell Death & Disease, 2025).
Where two headings read alike, the source gives them in different places.

Assays:
NIH-3T3 cells = experiment: Hoechst/propidium iodide cell death assay in NIH-3T3; format: cell-based; conditions: for cytotoxicity at 20 µM: Mus musculus, NIH3T3, 24 h, read-out: Percentage of cell death % 24h NIH3t3
Description: (§1) A high-content imaging system (PerkinElmer; Operetta CLS), was used to quantify cell death and apoptosis by calculating the number of propidium iodide-positive cells relative to Hoechst-positive cells, and the number of Annexin V-positive cells relative to Hoechst-positive cells, respectively.

Caco-2 cells = format: cell-based; conditions: for Percentage of cell death % 24h CACO-2: 20 µM; for Percentage of cell death % 48h, Caco-2: 20 μM
Description: as §1

[1] = molecular target: T1, 14-3-3ζ:BAD-112-136F interactions (Homo sapiens, UniProt P63104); experiment: BRET sensor screen for disruption of 14-3-3ζ-Rluc8:BAD-112-136F-mCitrine in living NIH-3T3 cells; format: cell-based, murine; set-up: inhibition: dose or concentration left out as unconfirmed; BRET reduction on NIH-3T3: unit not given here; conditions: for inhibition / inhibition at 20 µM: read-out: BRET reduction on NIH-3T3
T1 construct: expressed in transfected cells; host or cells: NIH-3T3 fibroblasts, bi-directional pBI-CMV1 plasmid
T1 sequence (P63104 1-245): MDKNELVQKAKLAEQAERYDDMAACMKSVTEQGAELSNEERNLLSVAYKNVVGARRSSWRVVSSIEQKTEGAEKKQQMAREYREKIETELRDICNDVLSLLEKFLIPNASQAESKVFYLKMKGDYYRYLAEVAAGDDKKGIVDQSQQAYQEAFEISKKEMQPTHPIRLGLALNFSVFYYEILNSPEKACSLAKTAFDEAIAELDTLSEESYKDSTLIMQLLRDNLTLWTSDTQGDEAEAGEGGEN
Procedure, shortened: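 NIH-3T3 cells were transfected with the BRET sensor two days beforehand, then replated on poly-L-ornithine-coated plates and grown 24 h at 37 °C. Medium was then replaced with Krebs buffer (pH 7.4). Z′-score was calculated to judge HTS robustness.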

HT-29 cells = experiment: Hoechst/propidium iodide cell death assay in HT-29; format: cell-based, human; conditions: for %Cell death HT-29: time not given; for cytotoxicity at 20 µM: Homo sapiens
Description: as §1

[2] = NIH3T3, 3 h, NIH-3T3 cells, hits from the primary screen
[3] = NIH3T3, 3 h, NIH-3T3 expressing BRET sensor, 20 µM, 3 h
[4] = HT-29, 48 h, HT-29, 48h, 20 μM, read-out: Percentage of cell death % 48h, HT-29
[5] = HT-29, 24 h, 20 µM, 24 h, read-out: Percentage of cell death % 24h HT-29
[6] = NIH-3T3 cells, hits from the primary screen
[7] = HT-29, 24 h, read-out: Percentage of cell death % 24h HT-29
[8] = HT-29, 48 h, read-out: Percentage of cell death % 48h, HT-29

SMILES	inhibition [1, 2]	inhibition at 20 µM [1, 3]	cytotoxicity at 20 µM (NIH-3T3 cells; 20 µM, 24 h)	Percentage of cell death % 48h, NIH3T3 (NIH-3T3 cells)	Percentage of cell death % 24h CACO-2 (Caco-2 cells)	Percentage of cell death % 48h, Caco-2 (Caco-2 cells)	%Cell death HT-29 (HT-29 cells; HT-29)	cytotoxicity at 20 µM (HT-29 cells; [4])	%Cell death Caco-2 (Caco-2 cells)	cytotoxicity at 20 µM (HT-29 cells; [5])	also measured
O=C1Nc2ccc(Cl)cc2[C@@](C#CC2CC2)(C(F)(F)F)O1 [Efavirenz]	30.3%	30.3%	41.4%	7.6471%			22.0%	22%	20.5%	18.5%	
CCCCCCCCCCCC1=C(O)C(=O)C=C(O)C1=O [Embelin]	37%	37%	69.5%	37.4899%			51.8%	51.8%	1.7%	19%	
Cl.Cl.Fc1ccc(C(c2ccc(F)cc2)N2CCN(C/C=C/c3ccccc3)CC2)cc1 [Flunarizine 2HCl]				0.5715%	3.891%	3.726%					Percentage of cell death % 24h NIH3t3 (NIH-3T3 cells; 20 µM, 24 h): 0.377%; BRET reduction on NIH-3T3 [1, 6]: 36.4286; BRET reduction on NIH-3T3 ([1]; NIH-3T3 expressing BRET sensor, 20 µM, 3 h): 36.4286; Percentage of cell death % 24h HT-29 (HT-29 cells; 20 µM, 24 h): 0.7908%; Percentage of cell death % 48h, HT-29 (HT-29 cells; HT-29, 48h, 20 μM): 1.34%
C=CCc1ccc(O)c(-c2ccc(O)c(CC=C)c2)c1 [Honokiol]	34.2%	34.2%	27.4%	11.7537%	22.4688%	15.5538%		11.1%		8.61%	
Clc1ccc(C(Cn2ccnc2)OCc2c(Cl)cccc2Cl)c(Cl)c1 (stereo not drawn) [Isoconazole nitrate]	45.1%	45.1%	8.57%	4.218%	5.943%	5.407%		3.88%		1.88%	
Cc1ccc(C(=O)N(CCCN)[C@@H](c2nc3cc(Cl)ccc3c(=O)n2Cc2ccccc2)C(C)C)cc1 [Ispinesib (SB-715992), Ispinesib]				78.7121%	86.1725%	89.1796%					cytotoxicity at 20 µM (NIH-3T3 cells): 87.5%; inhibition at 20 µM ([1]; NIH3T3, NIH-3T3 expressing BRET sensor, 20 µM, 3 h): 44.1%; BRET reduction on NIH-3T3 [1, 6]: 44.0919; cytotoxicity at 20 µM (HT-29 cells; [7]): 50.8%; cytotoxicity at 20 µM (HT-29 cells; [8]): 86.7%
C[C@H](CCC(=O)O)[C@H]1CC[C@H]2[C@@H]3CC[C@@H]4C[C@H](O)CC[C@]4(C)[C@H]3CC[C@]12C [Lithocholic Acid]	40.1%	40.1%	2.68%	0.3149%	2.024%	1.756%		2.06%		0.614%	
C=CCc1ccc(O)c(-c2cc(CC=C)ccc2O)c1 [Magnolol]				6.55%	16.7853%	10.8986%					cytotoxicity at 20 µM (NIH-3T3 cells): 15.7%; inhibition at 20 µM ([1]; NIH3T3, 3 h): 33.2%; BRET reduction on NIH-3T3 [1, 6]: 33.2336; cytotoxicity at 20 µM (HT-29 cells; [7]): 15.8%; cytotoxicity at 20 µM (HT-29 cells; [8]): 20.3%
CO/N=C1\C[C@]2(C[C@@H]3C[C@@H](C/C=C(\C)C[C@@H](C)/C=C/C=C4\CO[C@@H]5[C@H](O)C(C)=C[C@@H](C(=O)O3)[C@]45O)O2)O[C@H](/C(C)=C/C(C)C)[C@H]1C [Moxidectin]	44%	44%	80.7%	68.7026%			78.4%	78.4%	8.4%	8.61%	
OC(CNCC(O)C1CCc2cc(F)ccc2O1)C1CCc2cc(F)ccc2O1 (stereo not drawn) [Nebivolol]	34.7%	34.7%	64.6%	64.5697%			67.3%	67.3%	45.0%	9.8%	
O=c1[nH]c2ccccc2n1C1CCN(CCCC(c2ccc(F)cc2)c2ccc(F)cc2)CC1 [Pimozide]			65.9%	78.5926%			64.6%	64.6%	59.9%	11%	inhibition at 20 µM ([1]; NIH3T3, 3 h): 38.4%; BRET reduction on NIH-3T3 [1, 6]: 38.4171

Second part, led by results:

inhibition [1, 2]	inhibition at 20 µM [1, 3]	SMILES	cytotoxicity at 20 µM (NIH-3T3 cells; 20 µM, 24 h)	Percentage of cell death % 48h, NIH3T3 (NIH-3T3 cells)	Percentage of cell death % 24h CACO-2 (Caco-2 cells)	Percentage of cell death % 48h, Caco-2 (Caco-2 cells)	%Cell death HT-29 (HT-29 cells; HT-29)	cytotoxicity at 20 µM (HT-29 cells; [4])	%Cell death Caco-2 (Caco-2 cells)	cytotoxicity at 20 µM (HT-29 cells; [5])	also measured
50.4%	50.4%	CCCCc1oc2ccc(NS(C)(=O)=O)cc2c1C(=O)c1ccc(OCCCN(CCCC)CCCC)cc1 [Dronedarone]	88.3%	83.8385%	69.9639%	86.906%	79.0%	79%			%Cell death Caco-2 (Caco-2 cells; time not given, text says 48 h): 86.9%; Percentage of cell death % 24h HT-29 (HT-29 cells; 20 µM, 24 h): 52.4326%
39%	39%	CC(C)(C)c1cc(C(C)(C)C)c(NC(=O)c2c[nH]c3ccccc3c2=O)cc1O [Ivacaftor (VX-770), Ivacaftor]	7.87%	12.0089%	14.0443%	14.6425%		60.7%		9.35%	
36.5%	36.5%	Cc1cc(Nc2cc(CN3CCOCC3)c3nc(C)c(Cc4ccc(Cl)cc4F)n3n2)n[nH]1 [LY2784544]	62.8%	50.4683%	12.6848%	17.5299%		55.6%		6.62%	
27.1%	27.1%	CCOC(=O)C1=C(C)NC(C)=C(C(=O)OCC)C1c1ccccc1/C=C/C(=O)OC(C)(C)C [Lacidipine]	0.275%	0.2227%	4.66%	4.938%		2.6%		1.94%	
29.5%	29.5%	CC(C)OC(=O)CCC/C=C\C[C@@H]1[C@@H](CC[C@@H](O)CCc2ccccc2)[C@H](O)C[C@@H]1O [Latanoprost]	1.31%	0.6511%	2.638%	2.117%		1.45%		0.702%	
25.5%	25.5%	CCOC(=O)N1CCC(=C2c3ccc(Cl)cc3CCc3cccnc32)CC1 [Loratadine]	9.83%	16.5359%	3.76%	3.356%		3.3%		0.925%	
33.9%	33.9%	C=C[C@@H]1C[C@]1(NC(=O)[C@@H]1C[C@@H]2CN1C(=O)[C@H](C(C)(C)C)NC(=O)O[C@@H]1C[C@H]1CCCCCc1nc3ccc(OC)cc3nc1O2)C(=O)NS(=O)(=O)C1CC1 [MK-5172]	0.421%	0.3254%	2.115%	2.005%		2.55%		0.694%	
28.9%	28.9%	CN(C(=O)CN(CCO)CC(=O)N(C)C(C)(C)Cc1ccccc1)C(C)(C)Cc1ccccc1 [Oxethazaine]	28.2%	9.9556%			53.1%	53.1%	13.9%	3.21%	
29.4%	29.4%	CC(C)Oc1ccc(-c2nc(-c3cccc4c3CC[C@@H]4NCCO)no2)cc1C#N [Ozanimod (RPC1063), Ozanimod]	89.9%	87.9452%	10.8525%	17.0415%		3.92%		1.29%	
